Test results: US10363253B2, “Combination products for the treatment of RSV” (priority 2016, dated 2019)
Like-named read-outs stand apart in the source and are kept apart here.

Tested on: rgRSV224, an engineered RSV strain that encodes for eGFP
Type: cell-based
Description: To evaluate their combined antiviral effect against RSV, in vitro combination studies were performed with JNJ-53718678 (“compound A”) and various compounds with different mechanisms-of-action (“compound B”). In short, 9 concentrations of Compound A were combined with 6 or 7 concentrations of a certain compound B. HeLa cells were infected with rgRSV224, an engineered RSV strain that encodes for eGFP (Hallak L K, Spillmann D, Collins P L, Peeples M E. Glycosaminoglycan sulfation requirements for respiratory syncytial virus infection; Journal of Virology (2000), 74(22), 10508-13), in the presence of various concentrations of compound A and compound B individually or in combination.
Compound stock solutions were 5 mM in 100% DMSO, with following exceptions: ribavirin, 20 mM; A 60444, 10 mM; CR9501, 141 μM in PBS; palivizumab, 156 μM in PBS; MDT 637, 100 μM in methanol. First, the compounds were serially diluted in 3-fold dilution series in DMSO; CR9501 and palivizumab were serially diluted in cell culture medium, and MDT 637 in methanol. The concentration series were diluted 100-fold in cell culture medium to achieve a combination matrix. 10 μL of these compound solutions were transferred to black 384-well clear-bottom tissue-culture treated plates. Next, 10 μL of a […] HeLa cell suspension was added to achieve 3000 cells per well. Finally, 10 μL of diluted virus stock was added to achieve an MOI of 1. The final DMSO concentration of all wells was 0.5% DMSO, except for the MDT 637 experiment where it was 0.25% DMSO+0.25% methanol. Each combination of compound concentrations was tested in 4 replicates on 3 separate plates, resulting in a total of 12 replicates. The plates were incubated for 3 days at 37° C. in a humidified atmosphere at 5% CO2. The GFP signal was measured with PerkinElmer EnVision apparatus using a 405 nm filter.
The method of Harbron (Statistics in Medicine, 2010, DOI:10.1002/sim3916) was used to assess synergy. Using the Loewe definition, two compounds are characterized as being additive, synergistic or antagonistic by:
where d1 and d2 represent the doses of the two compounds that in combination produce an effect y, and Dy,1 and Dy,2 represent the doses of the two compounds that produce the same effect, y, when administered as a monotherapy. A 3PL model (3-parameter log-logistic model) was used for the monotherapy dose-response data, where the baseline response was fixed at one.
Following Harbron's approach, the following models were fitted to the data: • “Additive”: assuming no interaction between the two compounds • “Uniform”: assuming a constant interaction index τ across all dose combinations • “Linear A”: assuming the interaction index linearly depends on the log 10 dose of compound A: z=τ1+τ2 log 10(dA) • “Separate A”: assuming the interaction index τ takes a separate value for each dose of compound A The latter two models were also considered for compound B: • “Linear B”: assuming the interaction index linearly τ depends on the log 10 dose of compound B: τ=τ1+τ2 log 10(dB) • “Separate B”: assuming the interaction index τ takes a separate value for each dose of compound B

Compound: CS(=O)(=O)CCCn1c(Cn2c(=O)n(CC(F)(F)F)c3ccncc32)cc2cc(Cl)ccc21 [Compound A, 3-({5-chloro-1-[3-(methylsulfonyl)propyl]-1H-indol-2-yl}methyl)-1-(2,2,2-trifluoroethyl)-1,3-dihydro-2H-imidazo[4,5-c]pyridin-2-one]
- normalized GFP signal (A = 0.19 nM, B (A-60444) = 0): 0.96
- normalized GFP signal (A = 0.19 nM, B (AZ-27) = 0): 0.98
- normalized GFP signal (A = 0.19 nM, B (CAS 851658-10-1) = 0): 0.99
- normalized GFP signal (A = 0.19 nM, B (CR9501) = 0): 1.05
- normalized GFP signal (A = 0.19 nM, B (GS-5806) = 0): 0.99
- normalized GFP signal (A = 0.19 nM, B (MDT-637) = 0): 0.98
- normalized GFP signal (A = 0.19 nM, B (palivizumab) = 0): 1.04
- normalized GFP signal (A = 0.19 nM, B (pulmocide compound) = 0): 0.96
- normalized GFP signal (A = 0.19 nM, B (ribavirin) = 0): 0.97
- normalized GFP signal (A = 0.57 nM, B (A-60444) = 0): 0.95
- normalized GFP signal (A = 0.57 nM, B (AZ-27) = 0): 0.96
- normalized GFP signal (A = 0.57 nM, B (CAS 851658-10-1) = 0): 0.96
- normalized GFP signal (A = 0.57 nM, B (CR9501) = 0): 1.01
- normalized GFP signal (A = 0.57 nM, B (GS-5806) = 0): 0.93
- normalized GFP signal (A = 0.57 nM, B (MDT-637) = 0): 0.97
- normalized GFP signal (A = 0.57 nM, B (palivizumab) = 0): 0.98
- normalized GFP signal (A = 0.57 nM, B (pulmocide compound) = 0): 0.92
- normalized GFP signal (A = 0.57 nM, B (ribavirin) = 0): 0.95
- normalized GFP signal (A = 1.7 nM, B (A-60444) = 0): 0.83
- normalized GFP signal (A = 1.7 nM, B (AZ-27) = 0): 0.89
- normalized GFP signal (A = 1.7 nM, B (CAS 851658-10-1) = 0): 0.83
- normalized GFP signal (A = 1.7 nM, B (CR9501) = 0): 0.89
- normalized GFP signal (A = 1.7 nM, B (GS-5806) = 0): 0.83
- normalized GFP signal (A = 1.7 nM, B (MDT-637) = 0): 0.85
- normalized GFP signal (A = 1.7 nM, B (palivizumab) = 0): 0.86
- normalized GFP signal (A = 1.7 nM, B (pulmocide compound) = 0): 0.78
- normalized GFP signal (A = 1.7 nM, B (ribavirin) = 0): 0.87
- normalized GFP signal (A = 5.1 nM, B (A-60444) = 0): 0.55
- normalized GFP signal (A = 5.1 nM, B (AZ-27) = 0): 0.71
- normalized GFP signal (A = 5.1 nM, B (CAS 851658-10-1) = 0): 0.50
- normalized GFP signal (A = 5.1 nM, B (CR9501) = 0): 0.64
- normalized GFP signal (A = 5.1 nM, B (GS-5806) = 0): 0.47
- normalized GFP signal (A = 5.1 nM, B (MDT-637) = 0): 0.43
- normalized GFP signal (A = 5.1 nM, B (palivizumab) = 0): 0.57
- normalized GFP signal (A = 5.1 nM, B (pulmocide compound) = 0): 0.56
- normalized GFP signal (A = 5.1 nM, B (ribavirin) = 0): 0.63
- normalized GFP signal (A = 15 nM, B (A-60444) = 0): 0.38
- normalized GFP signal (A = 15 nM, B (AZ-27) = 0): 0.45
- normalized GFP signal (A = 15 nM, B (CAS 851658-10-1) = 0): 0.31
- normalized GFP signal (A = 15 nM, B (CR9501) = 0): 0.41
- normalized GFP signal (A = 15 nM, B (GS-5806) = 0): 0.30
- normalized GFP signal (A = 15 nM, B (MDT-637) = 0): 0.26
- normalized GFP signal (A = 15 nM, B (palivizumab) = 0): 0.38
- normalized GFP signal (A = 15 nM, B (pulmocide compound) = 0): 0.43
- normalized GFP signal (A = 15 nM, B (ribavirin) = 0): 0.39
- normalized GFP signal (A = 46 nM, B (A-60444) = 0): 0.28
- normalized GFP signal (A = 46 nM, B (AZ-27) = 0): 0.25
- normalized GFP signal (A = 46 nM, B (CAS 851658-10-1) = 0): 0.19
- normalized GFP signal (A = 46 nM, B (CR9501) = 0): 0.28
- normalized GFP signal (A = 46 nM, B (GS-5806) = 0): 0.21
- normalized GFP signal (A = 46 nM, B (MDT-637) = 0): 0.16
- normalized GFP signal (A = 46 nM, B (palivizumab) = 0): 0.28
- normalized GFP signal (A = 46 nM, B (pulmocide compound) = 0): 0.36
- normalized GFP signal (A = 46 nM, B (ribavirin) = 0): 0.25
- normalized GFP signal (A = 139 nM, B (A-60444) = 0): 0.14
- normalized GFP signal (A = 139 nM, B (AZ-27) = 0): 0.17
- normalized GFP signal (A = 139 nM, B (CAS 851658-10-1) = 0): 0.10
- normalized GFP signal (A = 139 nM, B (CR9501) = 0): 0.21
- normalized GFP signal (A = 139 nM, B (GS-5806) = 0): 0.11
- normalized GFP signal (A = 139 nM, B (MDT-637) = 0): 0.06
- normalized GFP signal (A = 139 nM, B (palivizumab) = 0): 0.17
- normalized GFP signal (A = 139 nM, B (pulmocide compound) = 0): 0.20
- normalized GFP signal (A = 139 nM, B (ribavirin) = 0): 0.15
- normalized GFP signal (A = 417 nM, B (A-60444) = 0): 0.07
- normalized GFP signal (A = 417 nM, B (AZ-27) = 0): 0.07
- normalized GFP signal (A = 417 nM, B (CAS 851658-10-1) = 0): 0.06
- normalized GFP signal (A = 417 nM, B (CR9501) = 0): 0.10
- normalized GFP signal (A = 417 nM, B (GS-5806) = 0): 0.06
- normalized GFP signal (A = 417 nM, B (MDT-637) = 0): 0.02
- normalized GFP signal (A = 417 nM, B (palivizumab) = 0): 0.09
- normalized GFP signal (A = 417 nM, B (pulmocide compound) = 0): 0.11
- normalized GFP signal (A = 417 nM, B (ribavirin) = 0): 0.08
- normalized GFP signal (A = 1250 nM, B (A-60444) = 0): 0.04
- normalized GFP signal (A = 1250 nM, B (AZ-27) = 0): 0.04
- normalized GFP signal (A = 1250 nM, B (CAS 851658-10-1) = 0): 0.04
- normalized GFP signal (A = 1250 nM, B (CR9501) = 0): 0.06
- normalized GFP signal (A = 1250 nM, B (GS-5806) = 0): 0.03
- normalized GFP signal (A = 1250 nM, B (MDT-637) = 0): −0.00
- normalized GFP signal (A = 1250 nM, B (palivizumab) = 0): 0.05
- normalized GFP signal (A = 1250 nM, B (pulmocide compound) = 0): 0.06
- normalized GFP signal (A = 1250 nM, B (ribavirin) = 0): 0.04

Compound: palivizumab: monoclonal antibody CAS 188039-54-5
- normalized GFP signal (A = 0, B (palivizumab) = 0.0061): 1.05
- normalized GFP signal (A = 0, B (palivizumab) = 0.018): 1.01
- normalized GFP signal (A = 0, B (palivizumab) = 0.055): 0.97
- normalized GFP signal (A = 0, B (palivizumab) = 0.165): 1.01
- normalized GFP signal (A = 0, B (palivizumab) = 0.494): 0.89
- normalized GFP signal (A = 0, B (palivizumab) = 1.482): 0.33
- normalized GFP signal (A = 0, B (palivizumab) = 4.447): 0.06
